{
  "source": "PubChem BioAssay AID1963445",
  "about": "(Molecular Pharmacology Branch, DTP, NCI, 2024)",
  "system": "MCF7 complex spheroid growth, % test/control",
  "assay": "Anticancer human tumor MCF7 cell line growth inhibition [Asc];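 further: spheroids exposed to compounds for 7 days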;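 on viability, T/C: 100% = DMSO vehicle control wells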",
  "conditions": "for IC50: curve of first compound; for viability, T/C: stronger effect = lower value",
  "how_it_was_run": "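Concentration series start at each agent's clinical Cmax, or at 10 microM when none is established, and drop in half-log steps; agents are applied alone or together to complex spheroids built with HUVEC and hMSC.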",
  "data": [
    {"compound": "NC(=O)C(=Cn1cnc(-c2cc(C(F)(F)F)cc(C(F)(F)F)c2)n1)c1cncnc1", "note": "+ CNC(C)C(=O)NC1CN(S(=O)(=O)c2cccc(S(=O)(=O)N3CCC4CCC(C(=O)NC(c5ccccc5)c5ccccc5)N4C(=O)C(NC(=O)C(C)NC)C3)c2)CCC2CCC(C(=O)NC(c3ccccc3)c3ccccc3)N2C1=O", "values": [
      {"measurement": "IC50", "setting": "second compound 0.00316 µM", "value": "< 0.949", "unit": "nM"},
      {"measurement": "IC50", "setting": "second compound 0.01 µM", "value": "< 0.949", "unit": "nM"},
      {"measurement": "IC50", "setting": "second compound 0.0316 µM", "value": "< 0.949", "unit": "nM"},
      {"measurement": "IC50", "setting": "second compound 0.1 µM", "value": "< 0.949", "unit": "nM"},
      {"measurement": "IC50", "setting": "second compound 0.316 µM", "value": "< 0.949", "unit": "nM"},
      {"measurement": "IC50", "setting": "second compound 1 µM", "value": "< 0.949", "unit": "nM"},
      {"measurement": "viability, T/C", "setting": "second compound 0.00316 µM, first compound 0.000949 µM", "value": 38.3, "unit": "%"},
      {"measurement": "viability, T/C", "setting": "second compound 0.00316 µM, first compound 0.003 µM", "value": 35.7, "unit": "%"},
      {"measurement": "viability, T/C", "setting": "second compound 0.00316 µM, first compound 0.00949 µM", "value": 23.6, "unit": "%"},
      {"measurement": "viability, T/C", "setting": "second compound 0.00316 µM, first compound 0.03 µM", "value": 16.3, "unit": "%"},
      {"measurement": "viability, T/C", "setting": "second compound 0.00316 µM, first compound 0.0949 µM", "value": 15.7, "unit": "%"},
      {"measurement": "viability, T/C", "setting": "second compound 0.00316 µM, first compound 0.3 µM", "value": 19.8, "unit": "%"},
      {"measurement": "viability, T/C", "setting": "second compound 0.01 µM, first compound 0.000949 µM", "value": 17.5, "unit": "%"},
      {"measurement": "viability, T/C", "setting": "second compound 0.01 µM, first compound 0.003 µM", "value": 12.1, "unit": "%"},
      {"measurement": "viability, T/C", "setting": "second compound 0.01 µM, first compound 0.00949 µM", "value": 11.6, "unit": "%"},
      {"measurement": "viability, T/C", "setting": "second compound 0.01 µM, first compound 0.03 µM", "value": 14.1, "unit": "%"},
      {"measurement": "viability, T/C", "setting": "second compound 0.01 µM, first compound 0.0949 µM", "value": 17.8, "unit": "%"},
      {"measurement": "viability, T/C", "setting": "second compound 0.01 µM, first compound 0.3 µM", "value": 16.7, "unit": "%"},
      {"measurement": "viability, T/C", "setting": "second compound 0.0316 µM, first compound 0.000949 µM", "value": 17.1, "unit": "%"},
      {"measurement": "viability, T/C", "setting": "second compound 0.0316 µM, first compound 0.003 µM", "value": 12.9, "unit": "%"},
      {"measurement": "viability, T/C", "setting": "second compound 0.0316 µM, first compound 0.00949 µM", "value": 13.1, "unit": "%"},
      {"measurement": "viability, T/C", "setting": "second compound 0.0316 µM, first compound 0.03 µM", "value": 17, "unit": "%"},
      {"measurement": "viability, T/C", "setting": "second compound 0.0316 µM, first compound 0.0949 µM", "value": 19, "unit": "%"},
      {"measurement": "viability, T/C", "setting": "second compound 0.0316 µM, first compound 0.3 µM", "value": 20.2, "unit": "%"},
      {"measurement": "viability, T/C", "setting": "second compound 0.1 µM, first compound 0.000949 µM", "value": 14.6, "unit": "%"},
      {"measurement": "viability, T/C", "setting": "second compound 0.1 µM, first compound 0.003 µM", "value": 14.6, "unit": "%"},
      {"measurement": "viability, T/C", "setting": "second compound 0.1 µM, first compound 0.00949 µM", "value": 13.7, "unit": "%"},
      {"measurement": "viability, T/C", "setting": "second compound 0.1 µM, first compound 0.03 µM", "value": 14.3, "unit": "%"},
      {"measurement": "viability, T/C", "setting": "second compound 0.1 µM, first compound 0.0949 µM", "value": 22.9, "unit": "%"},
      {"measurement": "viability, T/C", "setting": "second compound 0.1 µM, first compound 0.3 µM", "value": 22.2, "unit": "%"},
      {"measurement": "viability, T/C", "setting": "second compound 0.316 µM, first compound 0.000949 µM", "value": 12.9, "unit": "%"},
      {"measurement": "viability, T/C", "setting": "second compound 0.316 µM, first compound 0.003 µM", "value": 16, "unit": "%"},
      {"measurement": "viability, T/C", "setting": "second compound 0.316 µM, first compound 0.00949 µM", "value": 14.4, "unit": "%"},
      {"measurement": "viability, T/C", "setting": "second compound 0.316 µM, first compound 0.03 µM", "value": 14.5, "unit": "%"},
      {"measurement": "viability, T/C", "setting": "second compound 0.316 µM, first compound 0.0949 µM", "value": 22.4, "unit": "%"},
      {"measurement": "viability, T/C", "setting": "second compound 0.316 µM, first compound 0.3 µM", "value": 23.7, "unit": "%"},
      {"measurement": "viability, T/C", "setting": "second compound 1 µM, first compound 0.000949 µM", "value": 13.9, "unit": "%"},
      {"measurement": "viability, T/C", "setting": "second compound 1 µM, first compound 0.003 µM", "value": 16, "unit": "%"},
      {"measurement": "viability, T/C", "setting": "second compound 1 µM, first compound 0.00949 µM", "value": 13.9, "unit": "%"},
      {"measurement": "viability, T/C", "setting": "second compound 1 µM, first compound 0.03 µM", "value": 16.6, "unit": "%"},
      {"measurement": "viability, T/C", "setting": "second compound 1 µM, first compound 0.0949 µM", "value": 18.5, "unit": "%"},
      {"measurement": "viability, T/C", "setting": "second compound 1 µM, first compound 0.3 µM", "value": 22.3, "unit": "%"}
    ]},
    {"compound": "O=C(c1ccc(F)c(F)c1Nc1ccc(I)cc1F)N1CC(O)([C@@H]2CCCCN2)C1", "note": "+ CNC(C)C(=O)NC1CN(S(=O)(=O)c2cccc(S(=O)(=O)N3CCC4CCC(C(=O)NC(c5ccccc5)c5ccccc5)N4C(=O)C(NC(=O)C(C)NC)C3)c2)CCC2CCC(C(=O)NC(c3ccccc3)c3ccccc3)N2C1=O", "values": [
      {"measurement": "IC50", "setting": "second compound 0.00316 µM", "value": "< 3.16", "unit": "nM"},
      {"measurement": "IC50", "setting": "second compound 0.01 µM", "value": "< 3.16", "unit": "nM"},
      {"measurement": "IC50", "setting": "second compound 0.0316 µM", "value": "< 3.16", "unit": "nM"},
      {"measurement": "IC50", "setting": "second compound 0.1 µM", "value": "< 3.16", "unit": "nM"},
      {"measurement": "IC50", "setting": "second compound 0.316 µM", "value": "< 3.16", "unit": "nM"},
      {"measurement": "IC50", "setting": "second compound 1 µM", "value": "< 3.16", "unit": "nM"},
      {"measurement": "viability, T/C", "setting": "second compound 0.00316 µM, first compound 0.00316 µM", "value": 38.1, "unit": "%"},
      {"measurement": "viability, T/C", "setting": "second compound 0.00316 µM, first compound 0.01 µM", "value": 41.5, "unit": "%"},
      {"measurement": "viability, T/C", "setting": "second compound 0.00316 µM, first compound 0.0316 µM", "value": 34.6, "unit": "%"},
      {"measurement": "viability, T/C", "setting": "second compound 0.00316 µM, first compound 0.1 µM", "value": 26, "unit": "%"},
      {"measurement": "viability, T/C", "setting": "second compound 0.00316 µM, first compound 0.316 µM", "value": 19.4, "unit": "%"},
      {"measurement": "viability, T/C", "setting": "second compound 0.00316 µM, first compound 1 µM", "value": 12.3, "unit": "%"},
      {"measurement": "viability, T/C", "setting": "second compound 0.01 µM, first compound 0.00316 µM", "value": 17.3, "unit": "%"},
      {"measurement": "viability, T/C", "setting": "second compound 0.01 µM, first compound 0.01 µM", "value": 14.8, "unit": "%"},
      {"measurement": "viability, T/C", "setting": "second compound 0.01 µM, first compound 0.0316 µM", "value": 17.2, "unit": "%"},
      {"measurement": "viability, T/C", "setting": "second compound 0.01 µM, first compound 0.1 µM", "value": 12.9, "unit": "%"},
      {"measurement": "viability, T/C", "setting": "second compound 0.01 µM, first compound 0.316 µM", "value": 12.9, "unit": "%"},
      {"measurement": "viability, T/C", "setting": "second compound 0.01 µM, first compound 1 µM", "value": 11.6, "unit": "%"},
      {"measurement": "viability, T/C", "setting": "second compound 0.0316 µM, first compound 0.00316 µM", "value": 14.8, "unit": "%"},
      {"measurement": "viability, T/C", "setting": "second compound 0.0316 µM, first compound 0.01 µM", "value": 15.4, "unit": "%"},
      {"measurement": "viability, T/C", "setting": "second compound 0.0316 µM, first compound 0.0316 µM", "value": 13.3, "unit": "%"},
      {"measurement": "viability, T/C", "setting": "second compound 0.0316 µM, first compound 0.1 µM", "value": 16.4, "unit": "%"},
      {"measurement": "viability, T/C", "setting": "second compound 0.0316 µM, first compound 0.316 µM", "value": 10.7, "unit": "%"},
      {"measurement": "viability, T/C", "setting": "second compound 0.0316 µM, first compound 1 µM", "value": 10.2, "unit": "%"},
      {"measurement": "viability, T/C", "setting": "second compound 0.1 µM, first compound 0.00316 µM", "value": 13.2, "unit": "%"},
      {"measurement": "viability, T/C", "setting": "second compound 0.1 µM, first compound 0.01 µM", "value": 13.5, "unit": "%"},
      {"measurement": "viability, T/C", "setting": "second compound 0.1 µM, first compound 0.0316 µM", "value": 14.4, "unit": "%"},
      {"measurement": "viability, T/C", "setting": "second compound 0.1 µM, first compound 0.1 µM", "value": 12.3, "unit": "%"},
      {"measurement": "viability, T/C", "setting": "second compound 0.1 µM, first compound 0.316 µM", "value": 13.8, "unit": "%"},
      {"measurement": "viability, T/C", "setting": "second compound 0.1 µM, first compound 1 µM", "value": 9.72, "unit": "%"},
      {"measurement": "viability, T/C", "setting": "second compound 0.316 µM, first compound 0.00316 µM", "value": 13.3, "unit": "%"},
      {"measurement": "viability, T/C", "setting": "second compound 0.316 µM, first compound 0.01 µM", "value": 14.3, "unit": "%"},
      {"measurement": "viability, T/C", "setting": "second compound 0.316 µM, first compound 0.0316 µM", "value": 15.9, "unit": "%"},
      {"measurement": "viability, T/C", "setting": "second compound 0.316 µM, first compound 0.1 µM", "value": 12.5, "unit": "%"},
      {"measurement": "viability, T/C", "setting": "second compound 0.316 µM, first compound 0.316 µM", "value": 11.6, "unit": "%"},
      {"measurement": "viability, T/C", "setting": "second compound 0.316 µM, first compound 1 µM", "value": 12.4, "unit": "%"},
      {"measurement": "viability, T/C", "setting": "second compound 1 µM, first compound 0.00316 µM", "value": 14.6, "unit": "%"},
      {"measurement": "viability, T/C", "setting": "second compound 1 µM, first compound 0.01 µM", "value": 13.8, "unit": "%"},
      {"measurement": "viability, T/C", "setting": "second compound 1 µM, first compound 0.0316 µM", "value": 12.4, "unit": "%"},
      {"measurement": "viability, T/C", "setting": "second compound 1 µM, first compound 0.1 µM", "value": 12.9, "unit": "%"},
      {"measurement": "viability, T/C", "setting": "second compound 1 µM, first compound 0.316 µM", "value": 13, "unit": "%"},
      {"measurement": "viability, T/C", "setting": "second compound 1 µM, first compound 1 µM", "value": 13.2, "unit": "%"}
    ]}
  ]
}
